For twelve compounds, IC50 results are on record in US20240116985A1, “STAPLED PEPTIDES AND METHODS THEREOF” (priority 2020, published 2024).

Each structure is given as a SMILES string.

The target of test [1] is T1, beta-catenin/TCF4 engagement (Homo sapiens, UniProt P35222).
T1 construct: expressed in transfected cells; host or cells: HEK293
T1 sequence (P35222 1-781): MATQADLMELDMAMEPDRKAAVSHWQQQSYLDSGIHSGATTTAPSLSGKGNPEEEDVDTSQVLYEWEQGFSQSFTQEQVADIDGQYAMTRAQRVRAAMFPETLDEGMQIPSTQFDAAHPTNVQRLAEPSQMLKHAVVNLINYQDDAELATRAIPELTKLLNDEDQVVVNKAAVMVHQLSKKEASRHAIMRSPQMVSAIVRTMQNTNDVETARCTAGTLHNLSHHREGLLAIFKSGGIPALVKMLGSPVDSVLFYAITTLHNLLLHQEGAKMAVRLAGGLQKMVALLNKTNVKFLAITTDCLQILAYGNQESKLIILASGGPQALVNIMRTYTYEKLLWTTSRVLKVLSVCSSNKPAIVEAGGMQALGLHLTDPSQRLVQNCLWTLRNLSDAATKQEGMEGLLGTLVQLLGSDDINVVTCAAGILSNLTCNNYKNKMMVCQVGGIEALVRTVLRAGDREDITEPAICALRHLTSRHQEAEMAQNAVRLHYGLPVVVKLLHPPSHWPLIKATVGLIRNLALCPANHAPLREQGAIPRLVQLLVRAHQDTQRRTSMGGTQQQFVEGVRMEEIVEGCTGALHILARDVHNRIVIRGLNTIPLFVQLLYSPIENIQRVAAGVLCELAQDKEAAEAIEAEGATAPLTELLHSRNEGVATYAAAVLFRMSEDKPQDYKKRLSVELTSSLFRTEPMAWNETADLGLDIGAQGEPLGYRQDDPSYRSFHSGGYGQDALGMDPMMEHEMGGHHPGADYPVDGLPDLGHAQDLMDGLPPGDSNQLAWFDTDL
As to the kind of experiment: Nano-BRET target engagement assay (B-cat-Halo & TCF4-Luc in HEK293 cells). The note with it: absolute IC50; read-out: NanoBRET Abs IC50. In kind it is cell-based. In general terms: Bioluminescence resonance energy transfer reports proximity on the nanometre scale.

The target in test [2] is T2, full-length beta-Catenin (Uniprot ID P35222) (Homo sapiens, UniProt P35222).
T2 construct: 10 nM full-length beta-Catenin (Uniprot ID P35222)
T2 sequence (P35222 1-781): T1 sequence (P35222 1-781)
As to the kind of experiment: Fluorescence polarization IC50 (beta-catenin / 5FAM-TCF4 10-53 competition). In kind it is binding. Conditions: fluorescence polarization; read-out: beta-Catenin FP IC50. On the technique in general: In fluorescence polarisation assays a small probe gives low polarisation when free and higher when bound to something large.

In general, IC50 refers to the point on the concentration scale where inhibition reaches its midpoint. Regarding `CC(=O)N1CCC[C@]12CC=CCCCC1(CCCC=CCCCCCC[C@@](C)(C(=O)N[C@@H](Cc3ccccc3)C(=O)N[C@@H](Cc3csc4ccccc34)C(=O)N[C@@H](CCC(N)=O)C(N)=O)NC(=O)[C@H](CCC(N)=O)NC(=O)[C@H](Cc3ccccc3)NC(=O)[C@H](C)NC(=O)[C@H](C)NC(=O)[C@H](CCC(=O)O)NC(=O)[C@H](CC(=O)O)NC1=O)NC(=O)[C@H](CC(N)=O)NC(=O)[C@H](CC(=O)O)NC2=O` (stereo partly drawn) [I-1532, Ac-PL3-Asp-Asn-B5-Asp-Glu-Ala-Ala-Phe-Gln-S8-Phe-BztA-Gln-NH2], the results for the IC50 in test [1] and in test [2] were above 20000 nM and 49 nM, respectively.

As to `CC(=O)N1CCC[C@]12CC=CCCCC1(CCCC=CCCCCCC[C@@](C)(C(=O)N[C@@H](Cc3ccccc3)C(=O)N[C@@H](Cc3csc4ccccc34)C(=O)N[C@@H](CCC(N)=O)C(N)=O)NC(=O)[C@H](CC(C)C)NC(=O)[C@H](Cc3ccccc3)NC(=O)[C@H](C)NC(=O)[C@H](C)NC(=O)[C@H](CCC(=O)O)NC(=O)[C@H](CC(=O)O)NC1=O)NC(=O)[C@H](CC(N)=O)NC(=O)[C@H](CC(=O)O)NC2=O` (stereo partly drawn) [I-1533, Ac-PL3-Asp-Asn-B5-Asp-Glu-Ala-Ala-Phe-Leu-S8-Phe-BztA-Gln-NH2], the half-maximal inhibitory concentration (IC50) in test [1] was above 20000 nM; in test [2], 76 nM.

Regarding `CC(=O)N1CCC[C@]12CC=CCCCC1(CCCC=CCCCCCC[C@@](C)(C(=O)N[C@@H](Cc3ccccc3)C(=O)N[C@@H](Cc3csc4ccccc34)C(=O)N[C@@H](CCC(N)=O)C(N)=O)NC(=O)[C@H](CCO)NC(=O)[C@H](Cc3ccccc3)NC(=O)[C@H](C)NC(=O)[C@H](C)NC(=O)[C@H](CCC(=O)O)NC(=O)[C@H](CC(=O)O)NC1=O)NC(=O)[C@H](CC(N)=O)NC(=O)[C@H](CC(=O)O)NC2=O` (stereo partly drawn) [I-1534, Ac-PL3-Asp-Asn-B5-Asp-Glu-Ala-Ala-Phe-Hse-S8-Phe-BztA-Gln-NH2], the IC50 was above 20000 nM in test [1] and 181 nM in test [2].

As to `CC(=O)N1CCC[C@]12CC=CCCCC1(CCCC=CCCCCCC[C@@](C)(C(=O)N[C@@H](Cc3ccccc3)C(=O)N[C@@H](Cc3csc4ccccc34)C(=O)N[C@@H](CCC(N)=O)C(N)=O)NC(=O)[C@H](CCO)NC(=O)[C@H](Cc3ccccc3)NC(=O)[C@H](C)NC(=O)[C@H](C)NC(=O)[C@H](CCC(=O)O)NC(=O)[C@H](CC(=O)O)NC1=O)NC(=O)[C@H](CC(N)=O)NC(=O)[C@H](CC(=O)O)NC2=O` (stereo partly drawn) [I-1535, Ac-PL3-Asp-Asn-B5-Asp-Glu-Ala-Ala-Phe-Hse-S8-Phe-BztA-Gln-NH2], the values for the IC50 in test [1] and in test [2] were above 20000 nM and 72 nM, respectively.

For the compound `CC(=O)N1CCC[C@]12CC=CCCCC1(CCCC=CCCCCCC[C@@](C)(C(=O)N[C@@H](Cc3ccccc3)C(=O)N[C@@H](Cc3csc4ccccc34)C(=O)N[C@@H](CCC(N)=O)C(N)=O)NC(=O)[C@H](CCO)NC(=O)[C@H](Cc3ccccc3)NC(=O)[C@H](C)NC(=O)[C@H](C)NC(=O)[C@H](CCC(=O)O)NC(=O)[C@H](CC(=O)O)NC1=O)NC(=O)[C@H](CCC(C)C)NC(=O)[C@H](CC(=O)O)NC2=O` (stereo partly drawn) [I-1537, Ac-PL3-Asp-Hleu-B5-Asp-Glu-Ala-Ala-Phe-Hse-S8-Phe-BztA-Gln-NH2], the IC50 in test [1] stood at 13900 nM; in test [2] it was 31 nM.

For `CC(=O)N1CCC[C@]12CC=CCCCC1(CCCC=CCCCCCC[C@@](C)(C(=O)N[C@@H](Cc3ccccc3)C(=O)N[C@@H](Cc3csc4ccccc34)C(=O)N[C@@H](CCC(N)=O)C(N)=O)NC(=O)[C@H](CCO)NC(=O)[C@H](Cc3ccccc3)NC(=O)[C@H](C)NC(=O)[C@H](C)NC(=O)[C@H](CCC(=O)O)NC(=O)[C@H](CC(=O)O)NC1=O)NC(=O)[C@H](CCC(C)C)NC(=O)[C@H](CC(=O)O)NC2=O` (stereo partly drawn) [I-1538, Ac-PL3-Asp-Hleu-B5-Asp-Glu-Ala-Ala-Phe-Hse-S8-Phe-BztA-Gln-NH2], the IC50 in test [1] turned out to be 11800 nM; in test [2], 21 nM.

In the case of `CC(=O)N1CCC[C@]12CC=CCCCC1(CCCC=CCCCCCC[C@@](C)(C(=O)N[C@@H](Cc3ccccc3)C(=O)N[C@@H](Cc3csc4ccccc34)C(=O)N[C@@H](CCC(N)=O)C(N)=O)NC(=O)[C@H](CCC(N)=O)NC(=O)[C@H](Cc3ccccc3)NC(=O)[C@H](C)NC(=O)[C@H](C)NC(=O)[C@H](CCC(=O)O)NC(=O)[C@H](CC(=O)O)NC1=O)NC(=O)[C@H](CCC(N)=O)NC(=O)[C@H](CC(=O)O)NC2=O` (stereo partly drawn) [I-1539, Ac-PL3-Asp-Gln-B5-Asp-Glu-Ala-Ala-Phe-Gln-S8-Phe-BztA-Gln-NH2], the values for the IC50 in test [1] and in test [2] were above 20000 nM and 36 nM, respectively.

Regarding `CC(=O)N1CCC[C@]12CC=CCCCC1(CCCC=CCCCCCC[C@@](C)(C(=O)N[C@@H](Cc3ccccc3)C(=O)N[C@@H](Cc3csc4ccccc34)C(=O)N[C@@H](CCC(N)=O)C(N)=O)NC(=O)[C@H](CCC(N)=O)NC(=O)[C@H](Cc3ccccc3)NC(=O)[C@H](C)NC(=O)[C@H](C)NC(=O)[C@H](CCC(=O)O)NC(=O)[C@H](CC(=O)O)NC1=O)NC(=O)[C@H](CCO)NC(=O)[C@H](CC(=O)O)NC2=O` (stereo partly drawn) [I-1544, Ac-PL3-Asp-Hse-B5-Asp-Glu-Ala-Ala-Phe-Gln-S8-Phe-BztA-Gln-NH2], the IC50 in test [1] was above 20000 nM; in test [2] it was 61 nM.

On to `CC(=O)N1CCC[C@]12CC=CCCCC1(CCCC=CCCCCCC[C@@](C)(C(=O)N[C@@H](Cc3ccccc3)C(=O)N[C@@H](Cc3csc4ccccc34)C(=O)N[C@@H](CCC(N)=O)C(N)=O)NC(=O)[C@H](CCC(N)=O)NC(=O)[C@H](Cc3ccccc3)NC(=O)[C@H](C)NC(=O)[C@H](C)NC(=O)[C@H](CCC(=O)O)NC(=O)[C@H](CC(=O)O)NC1=O)NC(=O)[C@H](CCO)NC(=O)[C@H](CC(=O)O)NC2=O` (stereo partly drawn) [I-1545, Ac-PL3-Asp-Hse-B5-Asp-Glu-Ala-Ala-Phe-Gln-S8-Phe-BztA-Gln-NH2], for which the IC50 in test [1] was above 20000 nM; in test [2], 26 nM.

Turning to `CC(=O)N1CCC[C@]12CC=CCCCC1(CCCC=CCCCCCC[C@@](C)(C(=O)N[C@@H](Cc3ccccc3)C(=O)N[C@@H](Cc3csc4ccccc34)C(=O)N[C@@H](CCC(N)=O)C(N)=O)NC(=O)[C@H](CC(C)C)NC(=O)[C@H](Cc3ccccc3)NC(=O)[C@H](C)NC(=O)[C@H](C)NC(=O)[C@H](CCC(=O)O)NC(=O)[C@H](CC(=O)O)NC1=O)NC(=O)[C@H](CCO)NC(=O)[C@H](CC(=O)O)NC2=O` (stereo partly drawn) [I-1546, Ac-PL3-Asp-Hse-B5-Asp-Glu-Ala-Ala-Phe-Leu-S8-Phe-BztA-Gln-NH2], the IC50 in test [1] turned out to be 37900 nM; in test [2] it was 71 nM.

As for `CC(=O)N1CCC[C@]12CC=CCCCC1(CCCC=CCCCCCC[C@@](C)(C(=O)N[C@@H](Cc3ccccc3)C(=O)N[C@@H](Cc3csc4ccccc34)C(=O)N[C@@H](CCC(N)=O)C(N)=O)NC(=O)[C@H](CCO)NC(=O)[C@H](Cc3ccccc3)NC(=O)[C@H](C)NC(=O)[C@H](C)NC(=O)[C@H](CCC(=O)O)NC(=O)[C@H](CC(=O)O)NC1=O)NC(=O)[C@H](CCO)NC(=O)[C@H](CC(=O)O)NC2=O` (stereo partly drawn) [I-1547, Ac-PL3-Asp-Hse-B5-Asp-Glu-Ala-Ala-Phe-Hse-S8-Phe-BztA-Gln-NH2], the IC50 in test [1] was above 20000 nM; in test [2], 68 nM.

For `CC(=O)N1CCC[C@]12CC=CCCCC1(CCCC=CCCCCCC[C@@](C)(C(=O)N[C@@H](Cc3ccccc3)C(=O)N[C@@H](Cc3csc4ccccc34)C(=O)N[C@@H](CCC(N)=O)C(N)=O)NC(=O)[C@H](CCO)NC(=O)[C@H](Cc3ccccc3)NC(=O)[C@H](C)NC(=O)[C@H](C)NC(=O)[C@H](CCC(=O)O)NC(=O)[C@H](CC(=O)O)NC1=O)NC(=O)[C@H](CCO)NC(=O)[C@H](CC(=O)O)NC2=O` (stereo partly drawn) [I-1548, Ac-PL3-Asp-Hse-B5-Asp-Glu-Ala-Ala-Phe-Hse-S8-Phe-BztA-Gln-NH2], the figures for the half-maximal inhibitory concentration (IC50) in test [1] and in test [2] were above 20000 nM and 28 nM, respectively.
